Results taken from US20220380319A1 (Bial - R&D Investments, S.A., priority 2019, published 2022).
Converted amounts (≈) assume the structure as drawn.

How the values were obtained:
[1] = molecular target: T1, acid ceramidase (Homo sapiens, UniProt Q13510); assay: Acid ceramidase inhibition, biochemical fluorescent assay with cell lysates overexpressing acid ceramidase, substrate Rbm14-12; settings: substrate Rbm14-12 6.3 μM, pH 4.5, 1 hr preincubation at RT
T1 construct: Cell lysates overexpressing acid ceramidase were used as the enzyme source; expressed in transfected cells
T1 sequence (Q13510 22-395): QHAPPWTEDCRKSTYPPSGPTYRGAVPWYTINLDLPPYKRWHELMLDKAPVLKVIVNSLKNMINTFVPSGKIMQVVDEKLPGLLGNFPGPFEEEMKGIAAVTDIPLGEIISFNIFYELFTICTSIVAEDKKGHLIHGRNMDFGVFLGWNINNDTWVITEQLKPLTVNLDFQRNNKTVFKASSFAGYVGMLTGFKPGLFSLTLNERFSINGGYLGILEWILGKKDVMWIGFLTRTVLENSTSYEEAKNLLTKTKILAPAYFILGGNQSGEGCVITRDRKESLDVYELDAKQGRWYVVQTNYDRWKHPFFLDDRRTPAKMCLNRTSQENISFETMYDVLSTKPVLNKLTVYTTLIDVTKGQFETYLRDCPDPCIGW
Experimental: The ability of exemplary compounds to inhibit acid ceramidase was measured.
Cell lysates overexpressing acid ceramidase were used as the enzyme source for compound potency determination in a biochemical fluorescent assay. Briefly, compounds were preincubated with 10 μg protein of cell lysates in a dose-response manner for 1 hr at RT in the assay buffer containing 25 mM NaAC and 100 mM NaCl, pH 4.5. The reaction was initiated by the addition of substrate Rbm14-12 at a final concentration of 6.3 μM. The reaction was run at RT for 1 hr before it was stopped by the addition of the stopping buffer containing 20% methanol (v/v), 1 mg/ml NaIO4, 0.1 M glycine, pH 10.6. The samples were incubated with the stopping buffer at RT for 1 hr to allow the fluorescent product to be formed. Finally, the plate was read with SpectraMax i3 plate reader (Molecular Devices) at ex360 nm and em446 nm. Data were collected and used to determine the IC50 values of compounds by curve fitting to the four-parameter inhibition equation.

[2] = Compound solubility in water

Row | IC50 [1] | solubility [2] | Structure (SMILES)
1 | < 0.2 µM | 0.013 mg/mL (≈ 30.2 µM) | CN1CCC(c2c(C(F)(F)F)ccc3c2ncn3C(=O)NCCc2ccccc2)CC1 [Example 55, 4-(1-Methylpiperidin-4-yl)-N-phenethyl-5-(trifluoromethyl)-1H-benzo[d]imidazole-1-carboxamide]
2 | > 1 µM | 0.0281 mg/mL (≈ 73.5 µM) | CCCCNC(=O)n1cnc2c(C3CCN(C)CC3)c(C(F)(F)F)ccc21 [Example 56, N-Butyl-4-(1-methylpiperidin-4-yl)-5-(trifluoromethyl)-1H-benzo[d]imidazole-1-carboxamide]
3 | < 0.2 µM | 0.0241 mg/mL (≈ 63 µM) | CCCCNC(=O)n1cnc2c(C3CCN(C)CC3)cc(C(F)(F)F)cc21 [Example 57, N-Butyl-4-(1-methylpiperidin-4-yl)-6-(trifluoromethyl)-1H-benzo[d]imidazole-1-carboxamide]
4 | 0.2 to 1 µM | 0.0281 mg/mL (≈ 81.6 µM) | CCCCNC(=O)n1cnc2c(C3CCN(C)CC3)cc(OC)cc21 [Example 58, N-Butyl-6-methoxy-4-(1-methylpiperidin-4-yl)-1H-benzo[d]imidazole-1-carboxamide]
5 | < 0.2 µM | 0.0246 mg/mL (≈ 87.8 µM) | O=C(NCCCc1ccccc1)n1cnc2ncccc21 [Example 59, N-(3-Phenylpropyl)-1H-imidazo[4,5-b]pyridine-1-carboxamide]
6 | < 0.2 µM | 0.001 mg/mL (≈ 3.08 µM) | COc1nc2ncccc2n1C(=O)NCCCCc1ccccc1 [Example 61, 2-Methoxy-N-(4-phenylbutyl)-1H-imidazo[4,5-b]pyridine-1-carboxamide]
7 | < 0.2 µM | 0.0266 mg/mL (≈ 94.2 µM) | O=C(NCCOc1ccccc1)n1cnc2ncccc21 [Example 62, N-(2-Phenoxyethyl)-1H-imidazo[4,5-b]pyridine-1-carboxamide]
8 | < 0.2 µM | 0.0026 mg/mL (≈ 9.18 µM) | O=C(NCCc1ccccc1)n1cnc2cc(F)ccc21 [Example 63, 5-Fluoro-N-phenethyl-1H-benzo[d]imidazole-1-carboxamide]
9 | < 0.2 µM | 0.0036 mg/mL (≈ 12.7 µM) | O=C(NCCc1ccccc1)n1cnc2c(F)cccc21 [Example 64, 4-Fluoro-N-phenethyl-1H-benzo[d]imidazole-1-carboxamide]
10 | < 0.2 µM | 0.006 mg/mL (≈ 17.9 µM) | O=C(NCCc1ccccc1)n1cnc2ccc(C(F)(F)F)nc21 [Example 66a, N-Phenethyl-5-(trifluoromethyl)-3H-imidazo[4,5-b]pyridine-3-carboxamide]
11 | < 0.2 µM | 0.0129 mg/mL (≈ 38.6 µM) | O=C(NCCc1ccccc1)n1cnc2nc(C(F)(F)F)ccc21 [Example 66b, N-phenethyl-5-(trifluoromethyl)-1H-imidazo[4,5-b]pyridine-1-carboxamide]
12 | < 0.2 µM | 0.0225 mg/mL (≈ 95.6 µM) | CCCCNC(=O)n1cnc2cc(F)ccc21 [Example 67, N-Butyl-5-fluoro-1H-benzo[d]imidazole-1-carboxamide]
13 | < 0.2 µM | 0.0206 mg/mL (≈ 87.6 µM) | CCCCNC(=O)n1cnc2c(F)cccc21 [Example 68, N-Butyl-4-fluoro-1H-benzo[d]imidazole-1-carboxamide]
14 | 0.2 to 1 µM | 0.0202 mg/mL (≈ 85.9 µM) | CCCCNC(=O)n1cnc2ccc(F)cc21 [Example 69, N-Butyl-6-fluoro-1H-benzo[d]imidazole-1-carboxamide]
15 | < 0.2 µM | 0.0093 mg/mL (≈ 30.9 µM) | CCCCNC(=O)n1cnc2ccc(OC(F)(F)F)cc21 [Example 70a, N-Butyl-6-(trifluoromethoxy)-1H-benzo[d]imidazole-1-carboxamide]
16 | < 0.2 µM | 0.0096 mg/mL (≈ 31.9 µM) | CCCCNC(=O)n1cnc2cc(OC(F)(F)F)ccc21 [Example 70b, N-butyl-5-(trifluoromethoxy)-1H-benzo[d]imidazole-1-carboxamide]
17 | < 0.2 µM | 0.0091 mg/mL (≈ 29.2 µM) | COc1cccc2c1ncn2C(=O)NCCOc1ccccc1 [Example 71, 4-Methoxy-N-(2-phenoxyethyl)-1H-benzo[d]imidazole-1-carboxamide]
18 | < 0.2 µM | 0.002 mg/mL (≈ 5.73 µM) | O=C(NCCOc1ccccc1)n1cnc2c(C(F)(F)F)cccc21 [Example 72, N-(2-Phenoxyethyl)-4-(trifluoromethyl)-1H-benzo[d]imidazole-1-carboxamide]
19 | < 0.2 µM | 0.0027 mg/mL (≈ 9.02 µM) | O=C(NCCOc1ccccc1)n1cnc2c(F)cccc21 [Example 73, 4-Fluoro-N-(2-phenoxyethyl)-1H-benzo[d]imidazole-1-carboxamide]

Row | IC50 [1] | solubility [2] | Structure (SMILES)
20 | < 0.2 µM | 0.0059 mg/mL (≈ 19.3 µM) | N#Cc1cccc2c1ncn2C(=O)NCCOc1ccccc1 [Example 74, 4-Cyano-N-(2-phenoxyethyl)-1H-benzo[d]imidazole-1-carboxamide]
21 | 0.2 to 1 µM | 0.027 mg/mL (≈ 83 µM) | COc1c(-c2cncnc2)ccc2c1ncn2C(=O)NCC(C)C [Example 75, N-isoButyl-4-methoxy-5-(pyrimidin-5-yl)-1H-benzo[d]imidazole-1-carboxamide]
22 | < 0.2 µM | 0.01 mg/mL (≈ 27.5 µM) | CC(C)CNC(=O)n1cnc2c(C(F)(F)F)c(-c3cncnc3)ccc21 [Example 76, N-iso-Butyl-5-(pyrimidin-5-yl)-4-(trifluoromethyl)-1H-benzo[d]imidazole-1-carboxamide]
23 | < 0.2 µM | 0.0145 mg/mL (≈ 39.9 µM) | CC(C)CNC(=O)n1cnc2cc(-c3cncnc3)c(C(F)(F)F)cc21 [Example 77a, N-iso-Butyl-5-(pyrimidin-5-yl)-6-(trifluoromethyl)-1H-benzo[d]imidazole-1-carboxamide]
24 | < 0.2 µM | 0.0074 mg/mL (≈ 20.4 µM) | CC(C)CNC(=O)n1cnc2cc(C(F)(F)F)c(-c3cncnc3)cc21 [Example 77b, N-iso-butyl-6-(pyrimidin-5-yl)-5-(trifluoromethyl)-1H-benzo[d]imidazole-1-carboxamide]
25 | > 1 µM | 0.0327 mg/mL (≈ 92 µM) | CN1CCN(CCNC(=O)n2cnc3cc(C(F)(F)F)ccc32)CC1 [Example 78, N-(2-(4-Methylpiperazin-1-yl)ethyl)-5-(trifluoromethyl)-1H-benzo[d]imidazole-1-carboxamide]
26 | 0.2 to 1 µM | 0.0222 mg/mL (≈ 68.2 µM) | COc1cc2c(cc1-c1cncnc1)ncn2C(=O)NCC(C)C [Example 79a, N-iso-Butyl-6-methoxy-5-(pyrimidin-5-yl)-1H-benzo[d]imidazole-1-carboxamide]
27 | < 0.2 µM | 0.0265 mg/mL (≈ 81.4 µM) | COc1cc2ncn(C(=O)NCC(C)C)c2cc1-c1cncnc1 [Example 79b, N-iso-butyl-5-methoxy-6-(pyrimidin-5-yl)-1H-benzo[d]imidazole-1-carboxamide]
28 | < 0.2 µM | 0.0211 mg/mL (≈ 77.8 µM) | O=C(NCCCC(F)(F)F)n1cnc2ccccc21 [Example 80, N-(4,4,4-Trifluorobutyl)-1H-benzo[d]imidazole-1-carboxamide]
29 | 0.2 to 1 µM | 0.0228 mg/mL (≈ 70.1 µM) | COc1nc2ccc(-c3cncnc3)cc2n1C(=O)NCC(C)C [Example 81a, N-iso-Butyl-2-methoxy-6-(pyrimidin-5-yl)-1H-benzo[d]imidazole-1-carboxamide]
30 | 0.2 to 1 µM | 0.027 mg/mL (≈ 83 µM) | COc1nc2cc(-c3cncnc3)ccc2n1C(=O)NCC(C)C [Example 81b, N-iso-butyl-2-methoxy-5-(pyrimidin-5-yl)-1H-benzo[d]imidazole-1-carboxamide]
31 | 0.2 to 1 µM | 0.0218 mg/mL (≈ 67 µM) | CCCCNC(=O)n1c(OC)nc2ccc(-c3cncnc3)cc21 [Example 82a, N-Butyl-2-methoxy-6-(pyrimidin-5-yl)-1H-benzo[d]imidazole-1-carboxamide]
32 | 0.2 to 1 µM | 0.0245 mg/mL (≈ 75.3 µM) | CCCCNC(=O)n1c(OC)nc2cc(-c3cncnc3)ccc21 [Example 82b, N-Butyl-2-methoxy-5-(pyrimidin-5-yl)-1H-benzo[d]imidazole-1-carboxamide]
33 | 0.2 to 1 µM | 0.0169 mg/mL (≈ 51.9 µM) | COc1nc2cc(-c3cccnc3)cnc2n1C(=O)NCC(C)C [Example 83, N-iso-Butyl-2-methoxy-6-(pyridin-3-yl)-3H-imidazo[4,5-b]pyridine-3-carboxamide]
34 | 0.2 to 1 µM | 0.0009 mg/mL (≈ 2.76 µM) | CCCCNC(=O)n1c(=O)n(C)c2nc(-c3cncnc3)ccc21 [Example 84, N-Butyl-3-methyl-2-oxo-5-(pyrimidin-5-yl)-2,3-dihydro-1H-imidazo[4,5-b]pyridine-1-carboxamide]
35 | < 0.2 µM | 0.04 mg/mL (≈ 123 µM) | CCCCNC(=O)n1c(OC)nc2ccc(-c3cncnc3)nc21 [Example 85a, N-Butyl-2-methoxy-5-(pyrimidin-5-yl)-3H-imidazo[4,5-b]pyridine-3-carboxamide]
36 | < 0.2 µM | 0.054 mg/mL (≈ 165 µM) | CCCCNC(=O)n1c(OC)nc2nc(-c3cncnc3)ccc21 [Example 85b, N-butyl-2-methoxy-5-(pyrimidin-5-yl)-1H-imidazo[4,5-b]pyridine-1-carboxamide]
37 | < 0.2 µM | 0.0265 mg/mL (≈ 70 µM) | CN1CCC(Oc2cccc3c2ncn3C(=O)NCCc2ccccc2)CC1 [Example 86, 4-((1-Methylpiperidin-4-yl)oxy)-N-phenethyl-1H-benzo[d]imidazole-1-carboxamide]
